Experimental data published in US12509449B2, “Anthelmintic compounds comprising a quinoline structure” (Intervet Inc., priority 2019, dated 2025).

Legend:
[1] = system: Oesophagostumum dentatum L3; assay: In vitro assay Oesophagostumum dentatum larval stage 3, minimum effective concentration; type: cell-based; conditions: 20 larvae per well, microscopic examination; read-out: MEC (minimum effective concentration) against Oesophagostumum dentatum L3
From the text: (§1) […] galli (intestinal roundworm of chicken), larval stage 3 (“L3”); and Oesophagostumum dentatum (nodular worm of swine), larval stages 3 and 4 (respectively “L3” and “L4”) where suspended in a nutrient medium and distributed to 96 well plates with 20 larvae per well. The wells were spiked DMSO solutions of the compounds with declining concentration.

Dirofilaria immitis L4 = assay: In vitro assay Dirofilaria immitis L4 motility; type: cell-based; conditions: 72 h, 10 larvae L4, incubation 3 days, read-out: EC50 Dirofilaria immitis L4, reduction in motility
Description: (§2) 10 larvae L4 of D. immitis were added to a microtiter plate containing a nutrient medium and the test compound in DMSO at varying concentrations. After incubation for 3 days, activity was evaluated as reduction in motility as compared to DMSO as negative control. Compounds were tested in duplicates. Based on the concentration response curves EC50 values were calculated.

Ascaridia galli L3 = assay: In vitro assay Ascaridia galli larval stage 3, minimum effective concentration; type: cell-based; conditions: 20 larvae per well, microscopic examination, read-out: MEC (minimum effective concentration) against Ascaridia galli L3
From the text: as §1

[2] = target: Caenorhabditis elegans slo-1a (Caenorhabditis elegans, UniProt Q95V25); assay: Agonistic activity at C. elegans Slo-1a, membrane potential (FLIPR) in transfected CHO K1 cells; conditions: EC50 agonistic activity at C. elegans Slo-1a, membrane potential dye, 70 mM KCl
[3] = target: T1, human Maxi K channel (BK channel), KCNMA1 (KCa1.1) and beta1 (KCNMB1) subunits (Homo sapiens, UniProt Q12791); assay: Agonistic activity at the human Maxi K channel (BK channel), membrane potential (FLIPR) in transfected CHO K1 cells; type: cell-based; conditions: membrane potential dye, 70 mM KCl
T1 construct: expressed in transfected cells; host or cells: CHO K1
From the text: A CHO K1 cell line was stably transfected with the KCNMA1 (KCa1.1, U11058) and beta1 (KCNMB1) subunits of the human Maxi K channel (Ponte et al, Molecular Pharmacology 2012, 81(4), 567-577).
The complete measurement takes 150 s.

Haemonchus contortus [4] = assay: In vitro assay Haemonchus contortus exsheathed L3 larvae motility; type: cell-based; conditions: 168 h, incubation 7 days, automated microscopy, read-out: ED50 against Haemonchus contortus (motility reduced by 50%)
Description: Solutions of compounds with declining concentrations in DMSO were prepared, diluted with nutrient medium and distributed to 96 well microtiterplates. […]3 larvae of Haemonchus contortus were incubated for 20 min at 37° C. in a water bath, separated by centrifugation and added to the wells with 300 Larvae/well. After incubation for 7 days motility was assessed by automated microscopy. Ivermectin was used as positive control, DMSO as negative control and ED50 values were calculated which represent the concentration for an individual compound that reduces motility by 50% with respect to the […].

Dirofilaria immitis L1 = assay: In vitro assay Dirofilaria immitis L1 (microfilaria) motility; type: cell-based; conditions: 72 h, incubation 3 days, read-out: EC50 Dirofilaria immitis L1, reduction in motility
Description: as §2, with “Approximately 500” for “10 larvae L4 of”, “immitis microfilaria” for “immitis”

[5] = system: Oesophagostumum dentatum L4; assay: In vitro assay Oesophagostumum dentatum larval stage 4, minimum effective concentration; type: cell-based; conditions: 20 larvae per well, microscopic examination; read-out: MEC (minimum effective concentration) against Oesophagostumum dentatum L4
From the text: as §1

[6] = system: Acanthocheilonema viteae L1; assay: In vitro assay Acanthocheilonema viteae L1 (microfilaria) motility; type: cell-based; conditions: 72 h, incubation 3 days, read-out: EC50 Acanthocheilonema viteae L1, reduction in motility
Description: as §2, with “Approximately 500 A. viteae microfilaria” for “10 larvae L4 of D. immitis”

Haemonchus contortus [7] = assay: In vivo efficacy against Haemonchus contortus in jirds; parameters: species or system Haemonchus contortus in jirds (Meriones unguiculatus); conditions: necropsy three days after treatment
Description: Compounds according to this invention were tested in vivo using Haemonchus contortus in jirds (Meriones unguiculatus). The jirds were orally infected with approximately 1500 third-stage larvae of Haemonchus contortus. Ten days after infection, the jirds in the treatment groups were treated once either orally or subcutaneously with compounds at a dose of […]. For treatment, compounds were dissolved in a mixture of 10% Transcutol, 10% Cremophor EL and 80% physiological sodium chloride solution. Three days after treatment, the jirds were necropsied, and the larvae burden in the stomach was determined. The efficacy was defined as the reduction of the mean larvae count in the infected jirds of the treatment group in comparison to the infected jirds in an untreated control group (negative control).

Chain of Caenorhabditis elegans slo-1a (Q95V25 whole entry): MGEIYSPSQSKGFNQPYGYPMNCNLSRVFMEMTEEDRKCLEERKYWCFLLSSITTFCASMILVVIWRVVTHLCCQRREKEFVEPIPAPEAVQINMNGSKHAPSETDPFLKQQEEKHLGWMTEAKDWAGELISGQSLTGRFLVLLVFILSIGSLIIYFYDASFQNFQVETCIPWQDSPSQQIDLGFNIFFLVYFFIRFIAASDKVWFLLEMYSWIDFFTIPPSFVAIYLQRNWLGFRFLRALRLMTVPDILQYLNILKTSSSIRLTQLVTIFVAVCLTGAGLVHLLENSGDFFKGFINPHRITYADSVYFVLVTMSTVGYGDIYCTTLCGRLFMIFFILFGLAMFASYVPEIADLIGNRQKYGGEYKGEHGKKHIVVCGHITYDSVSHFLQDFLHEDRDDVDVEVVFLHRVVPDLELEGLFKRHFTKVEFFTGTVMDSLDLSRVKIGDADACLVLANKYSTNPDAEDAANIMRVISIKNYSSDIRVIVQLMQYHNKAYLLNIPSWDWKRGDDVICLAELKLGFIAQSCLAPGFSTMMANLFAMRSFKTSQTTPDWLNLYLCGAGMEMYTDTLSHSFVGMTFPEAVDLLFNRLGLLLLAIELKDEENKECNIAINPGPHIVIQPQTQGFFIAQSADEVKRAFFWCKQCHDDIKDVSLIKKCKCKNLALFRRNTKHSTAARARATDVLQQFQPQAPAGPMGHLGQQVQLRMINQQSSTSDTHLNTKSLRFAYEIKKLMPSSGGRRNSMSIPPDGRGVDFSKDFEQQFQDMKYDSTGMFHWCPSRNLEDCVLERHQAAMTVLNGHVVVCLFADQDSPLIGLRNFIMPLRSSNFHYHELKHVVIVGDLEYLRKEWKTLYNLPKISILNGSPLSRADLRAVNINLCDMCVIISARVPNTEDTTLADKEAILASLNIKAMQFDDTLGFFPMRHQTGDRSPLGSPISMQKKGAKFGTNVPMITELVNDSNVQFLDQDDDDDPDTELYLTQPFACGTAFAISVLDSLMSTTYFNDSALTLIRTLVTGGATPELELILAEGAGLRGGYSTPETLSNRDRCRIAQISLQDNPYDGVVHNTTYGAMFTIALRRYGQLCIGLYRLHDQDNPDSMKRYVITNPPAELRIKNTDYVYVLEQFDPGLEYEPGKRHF
T1 sequence (Q12791 1-1178 isoform Q12791-5): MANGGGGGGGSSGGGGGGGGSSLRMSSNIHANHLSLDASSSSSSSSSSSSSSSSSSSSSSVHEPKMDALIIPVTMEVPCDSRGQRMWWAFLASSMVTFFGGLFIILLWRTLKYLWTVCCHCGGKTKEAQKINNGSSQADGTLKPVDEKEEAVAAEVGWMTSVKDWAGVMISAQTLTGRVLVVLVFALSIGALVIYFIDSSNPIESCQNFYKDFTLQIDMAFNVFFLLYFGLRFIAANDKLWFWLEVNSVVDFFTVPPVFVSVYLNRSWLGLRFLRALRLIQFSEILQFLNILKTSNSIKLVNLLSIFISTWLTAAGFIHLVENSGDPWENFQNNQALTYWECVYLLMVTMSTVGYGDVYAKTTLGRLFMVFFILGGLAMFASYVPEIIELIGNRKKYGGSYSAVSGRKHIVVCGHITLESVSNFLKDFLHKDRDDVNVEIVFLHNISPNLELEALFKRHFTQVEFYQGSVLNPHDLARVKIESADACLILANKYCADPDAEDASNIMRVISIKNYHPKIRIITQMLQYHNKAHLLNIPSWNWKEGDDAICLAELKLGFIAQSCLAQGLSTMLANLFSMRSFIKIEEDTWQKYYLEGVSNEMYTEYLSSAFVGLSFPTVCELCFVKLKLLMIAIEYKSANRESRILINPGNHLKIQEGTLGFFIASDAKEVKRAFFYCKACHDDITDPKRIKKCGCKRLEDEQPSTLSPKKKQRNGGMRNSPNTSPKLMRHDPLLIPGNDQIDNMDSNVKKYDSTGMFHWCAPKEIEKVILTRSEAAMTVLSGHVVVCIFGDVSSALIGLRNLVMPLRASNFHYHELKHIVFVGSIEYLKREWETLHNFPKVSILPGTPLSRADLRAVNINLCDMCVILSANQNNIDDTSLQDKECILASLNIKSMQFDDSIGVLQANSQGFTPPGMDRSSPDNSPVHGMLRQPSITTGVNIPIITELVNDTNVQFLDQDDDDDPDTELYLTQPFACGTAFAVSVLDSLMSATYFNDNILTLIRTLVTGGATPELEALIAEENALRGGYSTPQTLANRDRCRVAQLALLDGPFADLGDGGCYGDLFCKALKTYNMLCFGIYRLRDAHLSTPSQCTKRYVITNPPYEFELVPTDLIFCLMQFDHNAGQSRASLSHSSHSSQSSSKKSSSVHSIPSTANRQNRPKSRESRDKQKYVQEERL
T1 sequence (Q16558 whole entry partner): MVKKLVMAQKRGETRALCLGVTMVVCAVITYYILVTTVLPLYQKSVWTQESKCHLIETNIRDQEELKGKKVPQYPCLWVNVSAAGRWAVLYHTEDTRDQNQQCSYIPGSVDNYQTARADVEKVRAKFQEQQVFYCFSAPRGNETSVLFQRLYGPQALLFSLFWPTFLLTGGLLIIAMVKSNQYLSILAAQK

| EC50 [2] | EC50 [3] | SMILES | minimal effective concentration [1] | minimal effective concentration (Ascaridia galli L3) | EC50 (Haemonchus contortus [4]) | also measured |
| --- | --- | --- | --- | --- | --- | --- |
| < 1 µM | 10 to 30 µM | O=C(Nc1cnc2c(-c3cc(Cl)cc(Cl)c3)cccc2c1N1CCOCC1)C1CCCc2ccccc21 (stereo not drawn) [Compound 8] |  |  | < 50 µM |  |
| < 10 µM | > 30 µM | CC(C(=O)Nc1cnc2c(-c3cccc(Cl)c3Cl)cccc2c1N(C)C)c1ccccc1 (stereo not drawn) [Compound 24] | ≤ 50 µM | ≤ 50 µM | < 50 µM |  |
| < 1 µM | > 30 µM | CN(C)c1c(NC(=O)c2cccc3ccccc23)cnc2c(-c3cccc(Cl)c3Cl)cccc12 [Compound 31] |  |  | < 50 µM |  |
| < 1 µM | > 30 µM | CN(C)c1c(NC(=O)C2CCOc3ccccc32)cnc2c(-c3cccc(Cl)c3F)cccc12 (stereo not drawn) [Compound 42] |  |  | < 50 µM |  |
| < 1 µM | 10 to 30 µM | O=C(Nc1cnc2c(-c3cccc(Cl)c3Cl)cccc2c1N1CCC(O)C1)C1CCc2ccccc21 (stereo not drawn) [Compound 45] |  | ≤ 50 µM |  | minimal effective concentration [5]: ≤ 50 µM |
| < 10 µM | > 30 µM | CCOc1c(NC(=O)C2CCc3ccccc32)cnc2c(-c3cc(Cl)cc(Cl)c3)cccc12 (stereo not drawn) [Compound 79] | ≤ 50 µM | ≤ 50 µM | < 50 µM |  |
|  | > 30 µM | CCNc1c(NC(=O)C2CCOc3ccccc32)cnc2c(-c3cccc(Cl)c3Cl)cccc12 (stereo not drawn) [Compound 86] |  | ≤ 50 µM | < 50 µM |  |
|  | > 30 µM | CCN(C)c1c(NC(=O)C2CCCc3ccccc32)cnc2c(-c3cccc(Cl)c3Cl)cccc12 (stereo not drawn) [Compound 98] |  |  |  | EC50 [6]: < 10 µM |
| < 1 µM | > 30 µM | O=C(Nc1cnc2c(-c3cc(Cl)cc(Cl)c3)c(F)ccc2c1N1CCOCC1)C1CCCc2ccccc21 (stereo not drawn) [Compound 116] |  | ≤ 50 µM | < 50 µM |  |
|  | > 30 µM | CC(C)Oc1c(NC(=O)C2CCOc3ccccc32)cnc2c(-c3cc(Cl)cc(Cl)c3)c(F)ccc12 (stereo not drawn) [Compound 127] | ≤ 50 µM | ≤ 50 µM |  | EC50 [6]: < 10 µM |
| < 1 µM | > 30 µM | CN(C)c1c(NC(=O)c2cccc3ccccc23)cnc2c(-c3cc(Cl)cc(Cl)c3)c(F)ccc12 [Compound 145] |  |  | < 50 µM |  |
|  | > 30 µM | CC(C)Oc1c(NC(=O)c2cccc3ccccc23)cnc2c(-c3cc(Cl)cc(Cl)c3)c(F)ccc12 [Compound 147] | ≤ 50 µM |  |  | EC50 [6]: < 10 µM |
|  |  | O=C(Nc1cnc2c(-c3cccc(Cl)c3Cl)c(F)ccc2c1N1CCOCC1)c1cccc2ccccc12 [Compound 151] |  |  |  | reduction of the Haemonchus contortus count (Haemonchus contortus [7]; administered orally once at 10 mg/kg bw): at least 80%; reduction of the Haemonchus contortus count (Haemonchus contortus [7]; administered subcutaneously once at 10 mg/kg bw): at least 80% |
| < 1 µM | > 30 µM | CN(C)c1c(NC(=O)[C@H]2CCCc3ccccc32)cnc2c(-c3cc(Cl)cc(Cl)c3)cccc12 [Compound 156] |  |  | < 50 µM |  |
|  | > 30 µM | CN(C(=O)C1CCOc2ccccc21)c1cnc2c(-c3cccc(Cl)c3Cl)cccc2c1N1CCOCC1 (stereo not drawn) [Compound 158] | ≤ 50 µM |  |  | minimal effective concentration [5]: ≤ 50 µM |
|  | > 30 µM | CCN(C(=O)C1CCOc2ccccc21)c1cnc2c(-c3cccc(Cl)c3Cl)cccc2c1N1CCOCC1 (stereo not drawn) [Compound 159] |  | ≤ 50 µM |  | EC50 [6]: < 10 µM |
|  | > 30 µM | CCN(C(=O)C1CCOc2ccccc21)c1cnc2c(-c3cc(Cl)cc(Cl)c3)cccc2c1N(C)C (stereo not drawn) [Compound 162] | ≤ 50 µM | ≤ 50 µM |  | EC50 [6]: < 10 µM |
|  | > 30 µM | CCN(C(=O)C1CCOc2ccccc21)c1cnc2c(-c3cc(Cl)cc(Cl)c3)cccc2c1N1CCOCC1 (stereo not drawn) [Compound 163] |  |  |  | minimal effective concentration [5]: ≤ 50 µM; EC50 [6]: < 10 µM |

| SMILES | EC50 [2] | EC50 [3] | minimal effective concentration [1] | minimal effective concentration (Ascaridia galli L3) | EC50 (Haemonchus contortus [4]) | also measured |
| --- | --- | --- | --- | --- | --- | --- |
| CN(C)c1c(NC(=O)Cc2ccccc2)cnc2c(-c3cc(Cl)cc(Cl)c3)cccc12 [Compound 3] | < 10 µM | > 30 µM | ≤ 50 µM | ≤ 50 µM |  | EC50 (Dirofilaria immitis L4): < 1 µM |
| COc1c(NC(=O)C(C)c2ccccc2)cnc2c(-c3cccc(Cl)c3Cl)cccc12 (stereo not drawn) [Compound 11] |  | > 30 µM |  |  |  | EC50 (Dirofilaria immitis L1): < 10 µM |
| CC(C(=O)Nc1cnc2c(-c3cccc(Cl)c3Cl)cccc2c1N(C)C)c1cccc(Cl)c1 (stereo not drawn) [Compound 28] |  | > 30 µM |  | ≤ 50 µM |  | minimal effective concentration [5]: ≤ 50 µM; EC50 (Dirofilaria immitis L1): < 10 µM |
| COc1cccc(C(C)C(=O)Nc2cnc3c(-c4cccc(Cl)c4Cl)cccc3c2N(C)C)c1 (stereo not drawn) [Compound 29] | < 10 µM | > 30 µM |  | ≤ 50 µM |  | minimal effective concentration [5]: ≤ 50 µM; EC50 (Dirofilaria immitis L1): < 10 µM |
| O=C(Nc1cnc2c(-c3cc(Cl)cc(Cl)c3)cccc2c1O)C1CCCc2ccccc21 (stereo not drawn) [Compound 63] |  | > 30 µM |  |  |  | EC50 (Dirofilaria immitis L1): < 10 µM |
